{
  "source": "paper PMC7605555",
  "about": "(bioRxiv, 2020)",
  "key": {"[1]": {"tested_on": "SARS-CoV-2", "format": "cell-based"}, "[2]": {"tested_on": "SARS-CoV-2", "assay": "Viral particle inactivation / time-of-addition, plaque assay on Vero E6 cells", "format": "cell-based"}, "[3]": {"tested_on": "SARS-CoV-2", "assay": "Plaque assay on A549^ACE2 cells with ethacridine-treated virus", "format": "cell-based", "conditions": "5 uM, 1 hr pre-incubation"}, "[4]": {"biological_target": "SARS-CoV-2 main protease Mpro (Severe acute respiratory syndrome coronavirus 2, UniProt P0DTD1)", "assay": "cell-based", "conditions": "IC50 in inhibiting Mpro"}, "[5]": {"tested_on": "SARS-CoV-2 viral RNA", "assay": "Viral RNA quantification by qRT-PCR in Vero cells and supernatant", "format": "cell-based", "conditions": "5 μM"}, "[6]": {"tested_on": "SARS-CoV-2", "format": "cell-based", "conditions": "5 μM, 48 hours, anti-N and anti-S staining"}, "[7]": {"conditions": "20 mg/kg, i.p. injection; cited from earlier work"}, "[8]": {"tested_on": "SARS-CoV-2", "format": "cell-based", "conditions": "virus treated with 5 μM for 1 hour, MOI = 100, Vero E6"}, "[9]": {"conditions": "rat, mice and rabbits; cited from earlier work"}, "[10]": {"tested_on": "Vero E6 cells", "assay": "Cytotoxicity, WST-1 cell proliferation assay", "format": "cell-based, African green monkey", "conditions": "for concentration at which cytotoxic: Vero E6 cells"}},
  "note": "“And” between values parts separate entries of the source, which are not always exact repeats. Equal values may be shown once.",
  "data": [
    {"molecule": "C[C@@H](NCCCc1cccc(C(F)(F)F)c1)c1cccc2ccccc12", "note": "[Cinacalcet, cinacalcet]", "values": [
      {"measurement": "reduction in viral titer", "setting": "[1]", "value": "~ 1 log"}
    ]},
    {"molecule": "CCOc1ccc2nc3cc(N)ccc3c(N)c2c1", "note": "[Ethacridine, ethacridine]", "values": [
      {"measurement": "reduction in viral titer, DMSO + Eth.", "setting": "[2]; 5 μM, drug added after viral entry", "value": "3 – 4 logs"},
      {"measurement": "reduction in viral titer, Eth. + Eth.", "setting": "[2]; 5 μM, drug present continuously prior to plaque assay, versus DMSO + DMSO", "value": "3 – 4 logs"},
      {"measurement": "reduction in viral titer, Eth. + Eth.", "setting": "[2]; 5 μM, plaque assay", "value": 2400, "unit": "fold"},
      {"measurement": "reduction in infectivity, Eth. [1 hr]", "setting": "[2]; virus pre-incubated with drug 1 hr, plaque assay without drug", "value": "3 – 4 logs"},
      {"measurement": "infectivity of drug-treated virus on A549^ACE2 cells", "setting": "[3]", "value": "dramatic decrease in infectivity"},
      {"measurement": "IC50", "setting": "[4]", "value": "~3.54 µM and ~3.5 µM"},
      {"measurement": "change of viral RNA (vRNA) levels, DMSO + Eth.", "setting": "[5]; drug added after binding and entry, supernatant and cells", "value": "no change"},
      {"measurement": "reduction in vRNA copies, Eth. + Eth.", "setting": "[5]; drug present continuously, supernatant and within the cells", "value": "4 – 5 fold"},
      {"measurement": "proportion of infected primary nasal cells", "setting": "[6]", "value": "dramatically decreased"},
      {"measurement": "reduction in viral titer", "setting": "[1]", "value": "5 – 6 log"},
      {"measurement": "toxicity in mice", "setting": "[7]", "value": "no toxicity"},
      {"measurement": "detectable anti-N and anti-S fluorescence on cells", "setting": "[8]", "value": "dramatic reduction"},
      {"measurement": "toxicity in animal models", "setting": "[9]", "value": "non-toxic"},
      {"measurement": "cell toxicity", "setting": "[10]; Vero E6 (Fig. 3e)", "value": "very little cell toxicity"}
    ]},
    {"molecule": "CC(=O)[C@@]1(O)CC[C@H]2[C@@H]3CCC4=CC(=O)CC[C@]4(C)[C@H]3CC[C@@]21C", "note": "[Hydroxyprogesterone, hydroxyprogesterone]", "values": [
      {"measurement": "reduction in viral titer", "setting": "[1]", "value": "~ 1 log"}
    ]},
    {"molecule": "CCC(CC)COC(=O)[C@H](C)N[P@](=O)(OC[C@H]1O[C@@](C#N)(c2ccc3c(N)ncnn23)[C@H](O)[C@@H]1O)Oc1ccccc1", "note": "[Remdesivir, remdesivir]", "values": [
      {"measurement": "reduction in viral titer", "setting": "[1]", "value": "~ 4 log"}
    ]},
    {"molecule": "COc1ccc2c(O[C@@H]3C[C@H]4C(=O)N[C@]5(C(=O)NS(=O)(=O)C6CC6)C[C@H]5/C=C\\CCCCN(C)C(=O)[C@@H]4C3)cc(-c3nc(C(C)C)cs3)nc2c1C", "note": "[Simeprevir, simeprevir]", "values": [
      {"measurement": "reduction in viral titer", "setting": "[1]", "value": "~ 4 log"}
    ]},
    {"molecule": "O=c1c2ccccc2[se]n1-c1ccccc1", "note": "[ebselen]", "values": [
      {"measurement": "reduction in viral titer", "setting": "[1]", "value": "~ 2 log"}
    ]},
    {"molecule": "ivermectin", "values": [
      {"measurement": "concentration at which cytotoxic", "setting": "[10]", "value": "5 to 13", "unit": "µM"}
    ]},
    {"molecule": "verteporfin", "values": [
      {"measurement": "concentration at which cytotoxic", "setting": "[10]", "value": "5 to 13", "unit": "µM"}
    ]}
  ]
}
